Data: patent US20230250054A1, “SELECTIVE HISTONE DEACETYLASE 6 INHIBITORS” (The Board of Trustees of the University of Illinois, priority 2020, published 2023)

What was measured:
HDAC6 = target: T1, HDAC6 (Homo sapiens, UniProt Q9UBN7); assay: Fluorescence-based HDAC inhibition assay, HDAC6; format: biochemical; details: Table 2
T1 construct: our assay that uses approximately 0.6 nM concentration of the full-length enzyme; made in house; host or cells: HEK293/T17 cells, transient transfection
T1 sequence (Q9UBN7 1-1215): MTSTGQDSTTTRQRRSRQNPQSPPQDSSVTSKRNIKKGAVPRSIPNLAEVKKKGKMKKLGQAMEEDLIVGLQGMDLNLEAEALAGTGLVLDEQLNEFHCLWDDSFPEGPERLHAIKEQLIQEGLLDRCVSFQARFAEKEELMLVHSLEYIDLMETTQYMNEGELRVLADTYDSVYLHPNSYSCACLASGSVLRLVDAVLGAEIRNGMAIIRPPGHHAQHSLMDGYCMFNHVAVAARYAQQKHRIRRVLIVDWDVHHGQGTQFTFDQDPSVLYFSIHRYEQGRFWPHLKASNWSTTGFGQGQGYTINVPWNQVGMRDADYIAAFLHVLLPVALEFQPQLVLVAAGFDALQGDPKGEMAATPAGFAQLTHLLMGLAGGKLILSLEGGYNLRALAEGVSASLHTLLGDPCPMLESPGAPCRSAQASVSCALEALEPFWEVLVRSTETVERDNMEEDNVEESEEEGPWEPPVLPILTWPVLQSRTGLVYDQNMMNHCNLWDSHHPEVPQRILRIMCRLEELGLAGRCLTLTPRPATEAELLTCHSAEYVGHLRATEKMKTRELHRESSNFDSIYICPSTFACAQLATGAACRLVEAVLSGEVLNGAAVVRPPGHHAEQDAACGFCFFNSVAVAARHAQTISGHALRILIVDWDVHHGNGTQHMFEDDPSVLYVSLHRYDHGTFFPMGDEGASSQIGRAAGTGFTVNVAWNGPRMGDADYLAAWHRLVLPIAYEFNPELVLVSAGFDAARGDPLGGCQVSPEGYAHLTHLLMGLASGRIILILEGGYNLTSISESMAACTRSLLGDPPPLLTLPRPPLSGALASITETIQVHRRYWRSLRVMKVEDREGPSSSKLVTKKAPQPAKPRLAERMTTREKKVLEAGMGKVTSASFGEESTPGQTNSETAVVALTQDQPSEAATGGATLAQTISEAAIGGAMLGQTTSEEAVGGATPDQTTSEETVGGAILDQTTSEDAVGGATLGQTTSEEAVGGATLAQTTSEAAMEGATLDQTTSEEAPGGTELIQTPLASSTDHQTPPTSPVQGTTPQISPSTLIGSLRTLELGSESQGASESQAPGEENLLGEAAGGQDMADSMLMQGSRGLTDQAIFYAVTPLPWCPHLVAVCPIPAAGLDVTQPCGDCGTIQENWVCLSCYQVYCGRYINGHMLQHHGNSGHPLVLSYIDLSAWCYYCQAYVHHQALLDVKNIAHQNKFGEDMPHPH
Protocol: (§1) Briefly, transiently transfected cells were harvested three days post-transfection and the cell pellets resuspended in a lysis buffer (50 mM Tris, 150 mM NaCl, 10 mM KCl, 2 mM MgCl2, 10% glycerol, 0.2% NP-40, 2 Units/mL benzonase, pH 8) supplemented with a cocktail of protease inhibitors (Roche, Basel, Switzerland). Cells were lysed by sonication (30 W; 3×20 s) on ice, and the cell lysate cleared by centrifugation at 40 000×g for 30 min at 4° C. […] Purified proteins were concentrated to 1 mg/mL, aliquoted, flash-frozen in liquid nitrogen, and stored at −80° C. until further use.
(§2) Briefly, individual HDACs were preincubated with dilution series of tested inhibitors (0-100 μM) in a 384-well plate in the total volume of 40 μL for 10 min at 37° C. in a reaction buffer comprising 50 mM HEPES, 140 mM NaCl, 10 mM KCl, 1 mM TCEP, 0.1% BSA, pH 7.4. Deacetylation reaction was started by the addition of 10 μL of a 10 μM substrate into the HDAC/inhibitor mixture. Following the 30 min incubation at 37° C., the reaction was terminated by the addition of 25 μL of the trypsin solution (4 mg/mL). Fluorescence development by trypsin was carried out at 37° C. for 15 and 60 min for Ac-GAK(Ac)-AMC and Boc-Lys(TFA)-AMC substrate, respectively. […] Non-linear regression analysis was employed to calculate IC50 values using the GraphPad Prism software. […] Reactions without the enzyme or the inhibitor were used to define 0% and 100% of the HDAC activity, respectively.

HDAC1 = target: T2, HDAC1 (Homo sapiens, UniProt Q13547); assay: Fluorescence-based HDAC inhibition assay, HDAC1; format: biochemical; details: ratio HDAC1 IC50 / HDAC6 IC50, Table 2
T2 construct: made in house; host or cells: HEK293/T17 cells, transient transfection
T2 sequence (Q13547 whole entry): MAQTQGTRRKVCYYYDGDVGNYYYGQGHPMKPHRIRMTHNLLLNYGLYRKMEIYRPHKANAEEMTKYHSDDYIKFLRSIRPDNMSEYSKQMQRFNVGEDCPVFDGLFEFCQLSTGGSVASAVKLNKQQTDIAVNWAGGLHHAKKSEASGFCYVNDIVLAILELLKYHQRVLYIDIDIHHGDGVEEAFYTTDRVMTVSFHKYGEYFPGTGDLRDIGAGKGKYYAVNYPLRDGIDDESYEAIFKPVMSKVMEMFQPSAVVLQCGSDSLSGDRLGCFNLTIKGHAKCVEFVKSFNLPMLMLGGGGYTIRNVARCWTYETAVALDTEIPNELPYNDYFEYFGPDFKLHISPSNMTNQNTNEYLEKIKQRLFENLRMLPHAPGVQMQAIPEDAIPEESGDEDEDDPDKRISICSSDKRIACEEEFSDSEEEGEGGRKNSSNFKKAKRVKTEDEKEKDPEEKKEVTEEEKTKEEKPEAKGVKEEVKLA
Protocol: as §1, §2

Row | IC50 (HDAC6) | Structure (SMILES) | HDAC1/6 (HDAC1)
1 | 16.8 µM | NCc1ccc(NC(=O)N(CCCCO)Cc2ccc(C(=O)O)cc2)cc1 [Compound 6d, 4-((3-(4-(Aminomethyl)phenyl)-1-(4-hydroxybutyl)ureido)methyl)benzoic acid] | –
2 | > 30 µM | NCc1ccc(NC(=O)N(CCCCO)Cc2ccc(C(N)=O)cc2)cc1 [Compound 6e, 4-((3-(4-(Aminomethyl)phenyl)-1-(4-hydroxybutyl)ureido)methyl)benzamide] | –
3 | > 30 µM | NCc1ccc(NC(=O)N(CCCCO)Cc2ccc(B(O)O)cc2)cc1 [Compound 6f, (4-((3-(4-(Aminomethyl)phenyl)-1-(4-hydroxybutyl)ureido)methyl)phenyl)boronic acid] | –
4 | – | O=C(CCCCCCC(=O)Nc1ccccc1)NO [Vorinostat, reference compound] | 5
